Test [1] has as its target T1, D(1A) dopamine receptor (Homo sapiens, UniProt P21728). The test is described as follows: Displacement of [3H]SCH23390 from dopamine D1 receptor (unknown origin).
Test [2] concerns the target T2, D(2) dopamine receptor (Homo sapiens, UniProt P14416). The test is described as follows: Displacement of [3H]N-methylspiperone from dopamine D2 receptor (unknown origin) at 10 uM relative to control.
In the next test the target is D(1B) dopamine receptor (Homo sapiens, UniProt P21918). The test is described as follows: Displacement of [3H]SCH23390 from dopamine D5 receptor (unknown origin). (Displacement assays read how much labelled ligand stays bound in the presence of the test substance.)
The species named for a further test is Homo sapiens. The test is described as follows: Selectivity index, ratio of Ki for displacement of [3H]SCH23390 from dopamine D5 receptor (unknown origin) to Ki for displacement of [3H]SCH23390 from dopamine D1 receptor (unknown origin).
The target in test [3] is T2, D(2) dopamine receptor. The test is described as follows: Displacement of [3H]N-methylspiperone from dopamine D2 receptor (unknown origin).
Test [4] addresses T1, D(1A) dopamine receptor. The test is described as follows: Antagonist activity at human dopamine D1 receptor expressed in CHO-K1 cells by cAMP Hunter assay. It is filed as functional, cell-based.
Test [5] concerns the target T1, D(1A) dopamine receptor. The test is described as follows: Agonist activity at human dopamine D1 receptor expressed in CHO-K1 cells by cAMP Hunter assay. It is filed as functional, cell-based.

As usually defined, the Ki is the dissociation constant of the complex between target and ligand, obtained from inhibition or displacement. The low end stands for tighter binding, the high end for weaker binding. One may read the inhibition as the share of the control response that was lost under treatment. The term IC50 denotes the concentration needed to halve the response being measured. Read a high IC50 as a need for much substance.

The source made the active and inactive calls. The calls are words filed in the database; no cut-off is given here.

Sequence of D(1B) dopamine receptor (P21918 whole entry): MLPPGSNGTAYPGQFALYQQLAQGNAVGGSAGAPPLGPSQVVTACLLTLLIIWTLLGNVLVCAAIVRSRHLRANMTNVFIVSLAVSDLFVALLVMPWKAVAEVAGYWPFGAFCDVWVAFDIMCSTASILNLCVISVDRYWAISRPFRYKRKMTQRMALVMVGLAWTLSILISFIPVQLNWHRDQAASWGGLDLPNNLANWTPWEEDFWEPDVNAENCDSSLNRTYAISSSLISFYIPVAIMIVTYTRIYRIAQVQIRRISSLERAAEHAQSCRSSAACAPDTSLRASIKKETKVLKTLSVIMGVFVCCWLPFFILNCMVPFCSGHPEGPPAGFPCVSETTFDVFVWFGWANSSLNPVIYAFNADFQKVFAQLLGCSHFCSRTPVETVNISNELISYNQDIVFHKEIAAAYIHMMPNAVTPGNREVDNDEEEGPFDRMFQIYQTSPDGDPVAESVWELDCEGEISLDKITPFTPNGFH
T2 sequence (P14416 whole entry): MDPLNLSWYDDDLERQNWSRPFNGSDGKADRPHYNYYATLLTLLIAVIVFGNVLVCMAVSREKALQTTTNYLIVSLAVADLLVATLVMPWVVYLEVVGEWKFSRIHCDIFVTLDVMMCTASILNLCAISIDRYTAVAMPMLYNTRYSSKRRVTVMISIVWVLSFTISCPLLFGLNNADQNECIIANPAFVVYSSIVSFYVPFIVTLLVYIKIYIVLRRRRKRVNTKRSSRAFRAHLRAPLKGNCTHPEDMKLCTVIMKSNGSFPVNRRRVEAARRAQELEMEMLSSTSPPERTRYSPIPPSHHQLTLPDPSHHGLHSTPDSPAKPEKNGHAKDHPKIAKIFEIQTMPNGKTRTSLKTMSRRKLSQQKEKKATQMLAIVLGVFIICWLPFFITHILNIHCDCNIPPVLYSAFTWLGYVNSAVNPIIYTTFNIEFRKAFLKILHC
T1 sequence (P21728 whole entry): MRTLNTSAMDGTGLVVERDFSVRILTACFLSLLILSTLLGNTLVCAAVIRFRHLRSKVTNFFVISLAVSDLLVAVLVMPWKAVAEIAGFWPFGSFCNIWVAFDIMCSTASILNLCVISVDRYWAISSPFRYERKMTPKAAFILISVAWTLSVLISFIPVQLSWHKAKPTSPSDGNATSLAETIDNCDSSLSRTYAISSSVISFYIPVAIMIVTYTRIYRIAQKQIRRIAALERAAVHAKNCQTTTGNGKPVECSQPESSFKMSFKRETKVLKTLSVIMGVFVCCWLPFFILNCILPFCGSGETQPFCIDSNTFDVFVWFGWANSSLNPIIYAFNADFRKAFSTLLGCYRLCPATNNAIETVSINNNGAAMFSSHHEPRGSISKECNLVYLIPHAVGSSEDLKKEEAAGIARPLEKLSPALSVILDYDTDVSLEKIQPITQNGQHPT

With `C=CCN1CCc2cc(OC)c(O)cc2C(c2ccccc2Cl)C1` (stereo not drawn), the results for the inhibitory constant (Ki) at D(1A) dopamine receptor [1] and on D(1B) dopamine receptor were 48.3 nM and 264 nM, respectively. The molecule further yielded an inhibition on D(2) dopamine receptor [2] below 50%.

As to `Oc1cc2c(cc1O)C(c1ccccc1Br)CNCC2` (stereo not drawn), the results for the Ki at D(1A) dopamine receptor [1] and at D(1B) dopamine receptor were 26 nM and 67 nM, respectively. Moreover, the inhibition at D(2) dopamine receptor [2] is below 50%.

As for `COc1cc2c(cc1O)C(c1c(Cl)cccc1Cl)CNCC2` (stereo not drawn), the results for the inhibitory constant (Ki) on D(1A) dopamine receptor [1] and on D(1B) dopamine receptor were 76.1 nM and 25.4 nM, respectively. The molecule also returned an inhibition on D(2) dopamine receptor [2] below 50%.

Regarding `COc1cc2c(cc1O)C(c1ccccc1Br)CNCC2` (stereo not drawn), the figures for the Ki at D(1A) dopamine receptor [1] and at D(1B) dopamine receptor were 72 nM and 82 nM, respectively. The molecule also registered an inhibition on D(2) dopamine receptor [2] below 50%. Moreover, in the test filed under Homo sapiens, the Ratio Ki was below 3.

Turning to `CN1CCc2cc(O)c(O)cc2C(c2ccccc2Br)C1` (stereo not drawn), the results for the inhibitory constant (Ki) on D(1A) dopamine receptor [1] and at D(1B) dopamine receptor were 59.4 nM and 223 nM, respectively. The inhibition at D(2) dopamine receptor [2] is below 50%. Besides, the Ratio Ki in the test listed under Homo sapiens was 3 to 4.

In the case of `C=CCN1CCc2cc(OC)c(O)cc2C(c2c(Cl)cccc2Cl)C1` (stereo not drawn), the inhibition constant (Ki) at D(1A) dopamine receptor [1] was 1040 nM; at D(2) dopamine receptor [3], 1510 nM; on D(1B) dopamine receptor it was 479 nM.

In the case of `COc1cc2c(cc1O)C(c1ccccc1Cl)CNCC2` (stereo not drawn), the inhibitory constant (Ki) on D(1A) dopamine receptor [1] is 147 nM; on D(1B) dopamine receptor, 483 nM. The same molecule yielded an inhibition on D(2) dopamine receptor [2] below 50%. Further, in the test filed under Homo sapiens, the Ratio Ki is below 3.

On to `COc1cc2c(cc1O)C(c1ccccc1Cl)CN(C)CC2` (stereo not drawn), for which the Ki at D(1A) dopamine receptor [1] was 14 nM; on D(1B) dopamine receptor, 46.4 nM. This molecule also had an inhibition at D(2) dopamine receptor [2] below 50%. For the same molecule, the Ratio Ki in the test listed under Homo sapiens is 3. The molecule further displayed a half-inhibitory concentration (IC50) against D(1A) dopamine receptor [4] of 9.4 nM. Moreover, the outcome at D(1A) dopamine receptor [5] was inactive.

For the molecule `COc1cc2c(cc1O)C(c1c(Cl)cccc1Cl)CN(C)CC2` (stereo not drawn), the Ki at D(1A) dopamine receptor [1] was 145 nM; on D(1B) dopamine receptor it was 49.1 nM. The inhibition on D(2) dopamine receptor [2] was below 50%.

With `COc1cc2c(cc1O)C(c1ccccc1Br)CN(C)CC2` (stereo not drawn), the Ki was 16 nM on D(1A) dopamine receptor [1] and 47 nM on D(1B) dopamine receptor. The molecule further had an inhibition on D(2) dopamine receptor [2] below 50%. For the same molecule, the Ratio Ki in the test listed under Homo sapiens worked out at 4.

Consider `C=CCN1CCc2cc(OC)c(O)cc2C(c2ccccc2Br)C1` (stereo not drawn), for which the Ki on D(1A) dopamine receptor [1] is 41 nM; on D(1B) dopamine receptor, 501 nM. Also, the inhibition on D(2) dopamine receptor [2] was below 50%.

Consider `C=CCN1CCc2cc(O)c(O)cc2C(c2ccccc2Br)C1` (stereo not drawn), for which the Ki on D(1A) dopamine receptor [1] came out at 133 nM; at D(1B) dopamine receptor, 442 nM. The same molecule yielded an inhibition on D(2) dopamine receptor [2] below 50%. Also, in the test listed under Homo sapiens, the Ratio Ki lay in the range of 3 to 4.

Take `COc1cc2c(cc1O)C(c1ccccc1)CNCC2` (stereo not drawn): the results for the inhibition constant (Ki) at D(1A) dopamine receptor [1] and on D(1B) dopamine receptor were 126 nM and 310 nM, respectively. The molecule also had an inhibition at D(2) dopamine receptor [2] below 50%. For the same molecule, the Ratio Ki in the test listed under Homo sapiens is below 3.
